Tests used:
[1] = target: T1, Sterol O-acyltransferase 1 (Mus musculus, UniProt Q61263); assay: Inhibition of acyl coenzyme A:cholesterol acyltransferase (ACAT) in J774 Macrophage cell culture by using J774 assay.; format: cell-based
T1 sequence (Q61263 whole entry): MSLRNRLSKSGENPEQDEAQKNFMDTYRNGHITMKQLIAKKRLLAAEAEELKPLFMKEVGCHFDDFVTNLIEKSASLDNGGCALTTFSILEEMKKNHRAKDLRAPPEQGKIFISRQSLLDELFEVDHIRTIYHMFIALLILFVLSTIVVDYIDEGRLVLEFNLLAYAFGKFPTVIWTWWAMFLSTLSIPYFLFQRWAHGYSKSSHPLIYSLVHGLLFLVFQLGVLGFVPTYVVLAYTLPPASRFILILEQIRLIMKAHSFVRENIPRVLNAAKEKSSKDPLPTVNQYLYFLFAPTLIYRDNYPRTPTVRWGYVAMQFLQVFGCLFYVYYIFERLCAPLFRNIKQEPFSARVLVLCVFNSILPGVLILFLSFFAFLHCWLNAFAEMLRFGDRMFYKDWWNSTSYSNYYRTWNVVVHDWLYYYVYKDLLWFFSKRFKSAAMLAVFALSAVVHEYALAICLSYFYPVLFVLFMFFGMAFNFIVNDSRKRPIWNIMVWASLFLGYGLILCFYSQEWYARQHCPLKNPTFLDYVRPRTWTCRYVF

[2] = target: T2, Sterol O-acyltransferase 1 (Rattus norvegicus, UniProt O70536); assay: In vitro inhibition of ACYL CoA:Cholesterol Acyltransferase (ACAT) in rat hepatic microsomes was measured by using AIV assay; design: species or system Liver
T2 sequence (O70536 whole entry): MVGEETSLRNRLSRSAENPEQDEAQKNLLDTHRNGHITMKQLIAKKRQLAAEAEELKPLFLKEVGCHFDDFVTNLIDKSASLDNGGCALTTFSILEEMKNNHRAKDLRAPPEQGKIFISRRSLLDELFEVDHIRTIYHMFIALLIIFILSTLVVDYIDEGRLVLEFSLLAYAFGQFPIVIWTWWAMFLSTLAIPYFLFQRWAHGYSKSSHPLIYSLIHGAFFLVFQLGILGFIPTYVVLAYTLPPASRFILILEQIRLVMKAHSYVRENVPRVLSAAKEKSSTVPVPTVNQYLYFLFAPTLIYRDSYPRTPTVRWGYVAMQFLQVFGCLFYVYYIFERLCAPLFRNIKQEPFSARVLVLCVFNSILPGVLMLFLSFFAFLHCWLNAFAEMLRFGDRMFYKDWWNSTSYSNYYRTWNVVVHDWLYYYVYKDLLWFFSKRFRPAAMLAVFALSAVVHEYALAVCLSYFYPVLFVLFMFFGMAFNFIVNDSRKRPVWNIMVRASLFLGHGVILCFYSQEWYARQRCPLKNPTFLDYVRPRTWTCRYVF

[3] = Partition coefficient (logP); format: physicochemical; conditions: octanol/water
[4] = target: T2, Sterol O-acyltransferase 1; assay: In vitro inhibition of acyl coenzyme A:cholesterol acyltransferase (ACAT) in rat hepatic microsomes by using AIV assay.; design: species or system Liver
[5] = target: T1, Sterol O-acyltransferase 1; assay: Inhibition of Acyl coenzyme A:cholesterol acyltransferase (ACAT) in J774 Macrophage cell culture was measured by using J774 assay; IA means the compound was inactive; format: cell-based
[6] = target: T1, Sterol O-acyltransferase 1; assay: Inhibition of Acyl coenzyme A:cholesterol acyltransferase (ACAT) in J774 Macrophage cell culture was measured by using J774 assay; IA means inactive; format: cell-based
[7] = target: T2, Sterol O-acyltransferase 1; assay: In vitro inhibition of Acyl coenzyme A:cholesterol acyltransferase (ACAT) in rat hepatic microsomes was measured by using AIV assay; IA means the compound was inactive; design: species or system Liver

| Compound | IC50 [1] [µM] | logP [3] | IC50 ([4]; read-out: IC50) [µM] | also measured |
| --- | --- | --- | --- | --- |
| CCCCCCCN(CCCCCSc1ncc[nH]1)C(=O)Nc1ccc(F)cc1F | 5.5 |  |  |  |
| CCCCCCCN(CCCCCOC1=NC(S)=NC1(c1ccccc1)c1ccccc1)C(=O)NC(C)C | 2.79 |  |  | IC50 [2]: 0.09 µM |
| CCCCCCCN(CCCCCSc1[nH]cnc2nncc1-2)C(=O)NC(C)C | 4.35 | 5 | 7.13 |  |
| CCCCCCCN(CCCCCSc1nc(N)c2c[nH]nc2n1)C(=O)Nc1ccc(F)cc1F | 72.5 | 5.74 | 4.23 |  |
| CCCCCCCN(CCCCCSc1nnc(-c2ccccc2)n1-c1ccccc1)C(=O)Nc1ccc(F)cc1F | 4.8 | 8.64 | 19 |  |
| CCCCCCCN(CCCCCSc1nc(N)c2c[nH]nc2n1)C(=O)NC(C)C |  | 5.14 |  | IC50 [5]: Not Active; IC50 [4]: Not Active |
| CCCCCCCN(CCCCCSc1nc(O)cc(Cc2ccccc2)n1)C(=O)NC(C)C | 25 | 7.4 | 9.2 |  |
| CCCCCCN(CCCCCSc1nc2ccccc2s1)C(=O)Nc1ccc(F)cc1F | 2.73 | 7.78 | 4 |  |
| CCCCCCCN(CCCCCSc1nc(-c2ccccc2)c(-c2ccccc2)n1-c1ccccc1)C(=O)Nc1ccc(F)cc1F | 54.5 |  |  | IC50 [4]: Not Active |
| CCCCCCCN(CCCCCSc1nnc(-c2ccccc2)c(-c2ccccc2)n1)C(=O)Nc1ccc(F)cc1F | 10.6 | 8.72 | 0.44 |  |
| CCCCCCCN(CCCCCSc1nc(N)cc(O)n1)C(=O)NC(C)C | 9.3 | 5.61 | 74 |  |
| CCCCCCN(CCCCCSc1nc2cc([N+](=O)[O-])ccc2[nH]1)C(=O)Nc1ccc(F)cc1F | 8.33 | 7.19 | 2 |  |
| CCCCCCCN(CCCCCSc1nc(-c2ccccc2)cn1-c1ccccc1)C(=O)Nc1ccc(F)cc1F | 6.02 |  | 7.2 |  |
| CCCCCCN(CCOCCSc1nc2c[nH]cnc-2n1)C(=O)NC(C)C | 60 | 3.72 | 2 |  |
| CCCCCCCN(CCCCCSc1nc[nH]n1)C(=O)Nc1ccc(F)cc1F | 27.3 |  | 5 |  |
| CCCCCCCN(CCCCCSc1ccccn1)C(=O)Nc1ccc(F)cc1F | 4.51 | 6.41 | 4 |  |
| CCCCCCCN(CCCCCSc1nc(-c2ccccc2)c[nH]1)C(=O)Nc1ccc(F)cc1F | 1.6 |  |  |  |
| CCCCCCN(CCCCCSc1nc2ccc[nH]c-2n1)C(=O)NC(C)C | 7.1 | 5.62 | 7.15 |  |
| CCCCCCCN(CCCCCSc1nc(O)c2ccccc2n1)C(=O)Nc1ccc(F)cc1F | 11 | 6.17 | 4 |  |
| CCCCCCN(CCOCCSc1nc2c[nH]cnc-2n1)C(=O)Nc1ccc(F)cc1F |  | 4.32 |  | IC50 [4]: Not Active |

| Compound | IC50 [1] [µM] | logP [3] | IC50 ([4]; read-out: IC50) [µM] | also measured |
| --- | --- | --- | --- | --- |
| CCCCCCN(CCCCCSc1nc2c[nH]cnc-2n1)C(=O)Nc1ccc(F)cc1F |  | 5.26 | 0.86 | IC50 [6]: Not Active |
| CCCCCCN(CCCCCSc1nc2c([nH]1)CCCC2)C(=O)Nc1ccc(F)cc1F | 2.58 | 6.81 | 0.81 |  |
| CCCCCCCN(CCCCCSc1[nH]cnc2ncnc1-2)C(=O)Nc1ccc(F)cc1F | 5.32 | 5.32 | 0.2 |  |
| CCCCCCN(CCCCCSc1nc2c[nH]cnc-2n1)C(=O)NC(C)C | 19.1 | 4.66 | 23.7 |  |
| CCCCCCCN(CCCCCSc1n[nH]c(-c2ccccc2)n1)C(=O)Nc1ccc(F)cc1F | 4.18 | 6.78 | 4 |  |
| CCCCCCCN(CCCCCSc1ncccn1)C(=O)Nc1ccc(F)cc1F | 4.37 | 5.41 | 3.3 |  |
| CCCCCCN(CCCCCSc1nc2ccc[nH]c-2n1)C(=O)Nc1ccc(F)cc1F | 5.47 | 6.22 | 3.6 |  |
| CCCCCCCN(CCCCCSC1N=C(c2ccccc2)c2ccccc2NC1=O)C(=O)NC(C)C (stereo not drawn) | 6.53 | 6.99 |  |  |
| CCCCCCCN(CCCCCSc1[nH]cnc2nncc1-2)C(=O)Nc1ccc(F)cc1F | 3.31 | 5.6 | 0.71 |  |
| CCCCCCN(CCCCCSc1nc2cc(C)ccc2[nH]1)C(=O)Nc1ccc(F)cc1F | 2.06 | 7.79 | 1 |  |
| CCCCCCCN(CCCCCSc1[nH]cnc2ncnc1-2)C(=O)NC(C)C | 4.72 | 4.72 | 29.7 |  |
| CCCCCCN(CCCCCSc1nc2cc(OCC)ccc2s1)C(=O)Nc1ccc(F)cc1F | 4.54 | 8.46 |  | IC50 [7]: Not Active |
| CCCCCCCN(CCCCCSC1=NC(=O)C(c2ccccc2)(c2ccccc2)N1)C(=O)NC(C)C | 2.14 |  | 2.79 |  |
| CCCCCCCN(CCCCCSC1N=C(c2ccccc2)c2ccccc2NC1=O)C(=O)Nc1ccc(F)cc1F (stereo not drawn) | 6.96 | 7.59 |  |  |
| CCCCCCN(CCCCCSc1nc2c(=O)n(C)c(=O)n(C)c2[nH]1)C(=O)NC(C)C | 1.53 | 5.1 | 3.6 |  |
| CCCCCCCN(CCCCCSc1nc(-c2ccccc2)c(-c2ccccc2)n1C)C(=O)Nc1ccc(F)cc1F | 3.8 |  |  |  |
| CCCCCCN(CCCCCSc1nc2ccccc2n1C)C(=O)Nc1ccc(F)cc1F | 3.02 | 7.47 | 2.49 |  |
| CCCCCCN(CCCCCSc1nc2ccccc2[nH]1)C(=O)Nc1ccc(F)cc1F | 3.1 | 7.29 | 0.5 |  |
| CCCCCCN(CCCCCSc1nc2ccccc2o1)C(=O)Nc1ccc(F)cc1F | 3.5 | 7.18 | 51 |  |

From ChEMBL document CHEMBL1128038, “Acyl CoA:cholesterol acyltransferase (ACAT) inhibitors: ureas bearing heterocyclic groups bioisosteric for an imidazole” (Bioorg Med Chem Lett, 1995)
